pIC50: −log10 of the molar value. ≈ marks a conversion by molar mass, not a printed value. Read-outs that look alike come from different tables or passages of the source.
Legend:
[1] = molecular target: T1, CK2A1 (Homo sapiens, UniProt P68400); test: Radiometric kinase assay (Eurofins), CK2A1; format: biochemical; details: read-out: CK2A1 RAD IC50
T1 construct: purchased Eurofins
Description: FIGS. 4A-4F characterize flavones for in vitro and in-cell CK2 inhibition. […] Representative of two independent experiments. […] Nonlinear fit was used to calculate IC50. […] Nonlinear fit was used to calculate IC50. […] Nonlinear fit was used to calculate IC50. […] Normalized to DMSO, data are representative of three independent experiments.
(§1) • ^1Radiometric kinase assay from Eurofins. Performed in astrocytes with a Promega Lumit IL-6 kit.

[2] = molecular target: T2, CK2A2 (Homo sapiens, UniProt P19784); test: Radiometric kinase assay (Eurofins), CK2A2; format: biochemical; details: read-out: CK2A2 RAD IC50
T2 construct: purchased Eurofins
Description: as §1

[3] = system: IL-6 secretion; test: IL-6 secretion assay in astrocytes (Promega Lumit IL-6 kit); format: cell-based, human; details: Homo sapiens, Astrocyte, read-out: IL6-Inhib.
Method: IL-6 secretion assay. HCAs were plated at 20,000 cells per well in white clear bottom 96-well plates. Two to three days later, media was removed and replaced with media containing 10 ng/mL IL1B and compound dilution series. Five hours later, plates were processed using the Lumit IL-6 Assay Kit (Promega W6030) according to the manufacturer's instructions.
• ^1Radiometric kinase assay from Eurofins. Performed in astrocytes with a Promega Lumit IL-6 kit. A series of halogenated flavones was generated and assayed (Table 3).

[4] = Aqueous solubility; format: physicochemical; details: read-out: Aqueous Solubility
[5] = aqueous (not further specified), Table 3
[6] = aqueous medium (not further specified), Table 8

T1 sequence (P68400 whole entry): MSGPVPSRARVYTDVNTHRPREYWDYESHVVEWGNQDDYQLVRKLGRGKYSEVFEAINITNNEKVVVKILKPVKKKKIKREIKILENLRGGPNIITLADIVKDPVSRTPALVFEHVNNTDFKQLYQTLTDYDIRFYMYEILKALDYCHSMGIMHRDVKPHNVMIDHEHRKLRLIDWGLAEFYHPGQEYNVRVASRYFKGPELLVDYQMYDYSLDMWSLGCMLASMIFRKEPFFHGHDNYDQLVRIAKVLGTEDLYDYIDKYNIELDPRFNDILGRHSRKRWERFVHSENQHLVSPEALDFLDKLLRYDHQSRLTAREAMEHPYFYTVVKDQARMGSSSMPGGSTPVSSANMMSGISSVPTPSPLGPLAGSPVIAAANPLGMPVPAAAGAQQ
T2 sequence (P19784 whole entry): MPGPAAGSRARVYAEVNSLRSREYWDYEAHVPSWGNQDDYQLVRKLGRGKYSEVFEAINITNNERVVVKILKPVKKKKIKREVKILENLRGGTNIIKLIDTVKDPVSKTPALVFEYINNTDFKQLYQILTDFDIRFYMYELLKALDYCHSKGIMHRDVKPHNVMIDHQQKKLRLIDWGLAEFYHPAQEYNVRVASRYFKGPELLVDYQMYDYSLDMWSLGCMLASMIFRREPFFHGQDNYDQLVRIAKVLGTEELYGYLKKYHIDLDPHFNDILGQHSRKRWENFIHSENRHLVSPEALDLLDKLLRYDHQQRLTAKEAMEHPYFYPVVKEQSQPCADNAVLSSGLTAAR

Structure (SMILES) | pIC50 ([1]; Table 3, halogenated flavones) | pIC50 ([2]; Table 3, halogenated flavones) | pIC50 ([3]; Table 3) | solubility [4, 5] | pIC50 ([1]; Table 11, aurones) | pIC50 ([2]; Table 11, aurones) | pIC50 ([3]; Table 11) | solubility ([4]; Table 11) | further results
O=c1cc(-c2ccc(O)c(Cl)c2)oc2c(Cl)cc(Cl)cc12 [JKT.725A] | 7.82 | 7.92 | 5.32 | 39.9 µM (≈ 13.6 µg/mL) |  |  |  |  | 
O=C1/C(=C/c2ccc(O)c(Cl)c2)Oc2c(Br)cc(Br)cc21 [JKT.726A] |  |  |  |  | 7.36 | 7.59 | 5.47 | 7.8 µM (≈ 3.36 µg/mL) | 
O=C1/C(=C/c2ccc(O)cc2Cl)Oc2c(Br)cc(Br)cc21 [JKT.727A] |  |  |  |  | < 5.30 | < 5.30 | 5.33 | 73.7 µM (≈ 31.7 µg/mL) | 
O=C1/C(=C/c2ccc(O)c(I)c2)Oc2c(Br)cc(Br)cc21 [JKT.728A] |  |  |  |  | 7.09 | 7.15 | 5.77 | 17.7 µM (≈ 9.24 µg/mL) | 
O=c1[nH]c(-c2ccc(O)c(Br)c2)nc2c(Br)cc(Br)cc12 [JKT.734C] |  |  |  |  |  |  |  |  | pIC50 ([1]; Table 8, quinazolinones): 7.62; pIC50 ([2]; Table 8, quinazolinones): 7.38; pIC50 ([3]; Table 8): < 5.00; solubility [4, 6]: > 200 µM
COc1cc(-c2cc(=O)c3cc(Br)cc(Br)c3[nH]2)ccc1O [JKT.736A] |  |  |  |  |  |  |  |  | pIC50 ([1]; Table 6, quinolinones): 7.66; pIC50 ([2]; Table 6, quinolinones): 7.82; pIC50 ([3]; Table 6): 5.41; solubility ([4]; Table 6): 10 µM (≈ 4.25 µg/mL)
COc1cc(-c2nc3c(Br)cc(Br)cc3c(=O)[nH]2)ccc1O [JKT.737B] |  |  |  |  |  |  |  |  | pIC50 ([1]; Table 8, quinazolinones): 6.06; pIC50 ([2]; Table 8, quinazolinones): 5.55; pIC50 ([3]; Table 8): < 5.00
O=c1cc(-c2ccc(O)c(Br)c2)oc2c(Br)cccc12 [JKT.744B] | 7.89 | 7.77 | 5.43 | 5 µM (≈ 1.98 µg/mL) |  |  |  |  | 
COc1c(Br)cc2c(=O)cc(-c3ccc(O)c(Br)c3)oc2c1Br [JKT.745A] | 7.70 | 7.96 | 5.52 | > 200 µM |  |  |  |  | 
COc1c(Br)cc2c(=O)cc(-c3ccc(O)c(Cl)c3)oc2c1Br [JKT.748A] | 7.62 | 8.05 | 5.41 | 24.3 µM (≈ 11.2 µg/mL) |  |  |  |  | 
O=c1cc(-c2ccc(O)c(Cl)c2)oc2c(Br)cccc12 [JKT.749A] | 7.96 | 7.74 | 5.32 | 36.5 µM (≈ 12.8 µg/mL) |  |  |  |  | 
COc1c(Br)cc2c(=O)cc(-c3ccc(O)c(C(F)(F)F)c3)oc2c1Br [JKT.750A] | 6.24 | 6.33 | 5.66 | 124 µM (≈ 61.5 µg/mL) |  |  |  |  | 
O=c1cc(-c2ccc(O)c(C(F)(F)F)c2)oc2c(Br)cccc12 [JKT.751A] | 6.20 | 6.20 | 5.30 | 4 µM (≈ 1.54 µg/mL) |  |  |  |  | 
COc1c(Br)cc2c(=O)cc(-c3cc(F)c(O)c(F)c3)oc2c1Br [JKT.753A] | < 5.30 | 5.73 | < 5.00 | 109 µM (≈ 50.5 µg/mL) |  |  |  |  | 
O=c1[nH]c(-c2ccc(O)c(Cl)c2)nc2c(Br)cc(Br)cc12 [JKT.772A] |  |  |  |  |  |  |  |  | pIC50 ([1]; Table 8, quinazolinones): 7.64; pIC50 ([2]; Table 8, quinazolinones): 7.14; pIC50 ([3]; Table 8): 4.96; solubility [4, 6]: < 0.01 µM
COc1nc(-c2nc3c(Br)nc(Br)cc3c(=O)[nH]2)ccc1O [JKT.976B] |  |  |  |  |  |  |  |  | pIC50 ([1]; Table 8, quinazolinones): 6.63; pIC50 ([2]; Table 8, quinazolinones): 6.31; pIC50 ([3]; Table 8): < 5.00

Further lines, with some results ahead:

pIC50 ([1]; Table 3, halogenated flavones) | pIC50 ([2]; Table 3, halogenated flavones) | pIC50 ([3]; Table 3) | solubility [4, 5] | pIC50 ([1]; Table 11, aurones) | pIC50 ([2]; Table 11, aurones) | pIC50 ([3]; Table 11) | solubility ([4]; Table 11) | Structure (SMILES) | further results
 |  |  |  | < 5.30 | < 5.30 | 5.52 | 2.7 µM (≈ 1.28 µg/mL) | O=C1/C(=C/c2ccc(O)cc2Br)Oc2c(Br)cc(Br)cc21 [JKT.758A] | 
 |  |  |  | 7.24 | 7.36 | 5.64 | 3.6 µM (≈ 1.82 µg/mL) | COc1c(Br)cc2c(c1Br)O/C(=C\c1ccc(O)c(Br)c1)C2=O [JKT.759A] | 
 |  |  |  | < 5.30 | < 5.30 | 5.03 | 184 µM (≈ 92.7 µg/mL) | COc1c(Br)cc2c(c1Br)O/C(=C\c1ccc(O)cc1Br)C2=O [JKT.760A] | 
 |  |  |  | 7.17 | 7.32 | 5.60 | 120 µM (≈ 55.2 µg/mL) | COc1c(Br)cc2c(c1Br)O/C(=C\c1ccc(O)c(Cl)c1)C2=O [JKT.761A] | 
 |  |  |  | < 5.30 | < 5.30 | 5.36 | 58.6 µM (≈ 27 µg/mL) | COc1c(Br)cc2c(c1Br)O/C(=C\c1ccc(O)cc1Cl)C2=O [JKT.762A] | 
 |  |  |  | 6.22 | 6.20 | 5.57 | 7.9 µM (≈ 3.9 µg/mL) | COc1c(Br)cc2c(c1Br)O/C(=C\c1ccc(O)c(C(F)(F)F)c1)C2=O [JKT.763A] | 
 |  |  |  | 6.28 | 6.42 | 4.92 | < 0.01 µM | COc1cc(/C=C2\Oc3c(cc(Br)c(OC)c3Br)C2=O)ccc1O [JKT.764A] | 
 |  |  |  | 5.61 | 6.70 | 4.82 | > 200 µM | COc1c(Br)cc2c(c1Br)O/C(=C\c1ccc(C(=O)O)cc1)C2=O [JKT.765A] | 
